Results on two compounds are retold here after PMC9503767, “Site-Differentiated Iron–Sulfur Cluster Ligation Affects Flavin-Based Electron Bifurcation Activity” (Metabolites, 2022).

The structures appear in SMILES notation.

The experiment concerns the target T1, NfnL (large subunit of NADH-dependent reduced-ferredoxin: NADP+ oxidoreductase NfnSL) (Pyrococcus furiosus, UniProt Q8U195, E126C).
T1 construct: gene sudA; isolated NfnL subunit
As to the kind of experiment: intrinsic protein fluorescence quenching titration (ex […] nm, em […] nm), quadratic tight-binding fit.

Broadly, the Kd is the free concentration of one partner at which half of the binding sites on the other are occupied at equilibrium, for simple one-to-one binding.

T1 sequence (Q8U195 whole entry E126C): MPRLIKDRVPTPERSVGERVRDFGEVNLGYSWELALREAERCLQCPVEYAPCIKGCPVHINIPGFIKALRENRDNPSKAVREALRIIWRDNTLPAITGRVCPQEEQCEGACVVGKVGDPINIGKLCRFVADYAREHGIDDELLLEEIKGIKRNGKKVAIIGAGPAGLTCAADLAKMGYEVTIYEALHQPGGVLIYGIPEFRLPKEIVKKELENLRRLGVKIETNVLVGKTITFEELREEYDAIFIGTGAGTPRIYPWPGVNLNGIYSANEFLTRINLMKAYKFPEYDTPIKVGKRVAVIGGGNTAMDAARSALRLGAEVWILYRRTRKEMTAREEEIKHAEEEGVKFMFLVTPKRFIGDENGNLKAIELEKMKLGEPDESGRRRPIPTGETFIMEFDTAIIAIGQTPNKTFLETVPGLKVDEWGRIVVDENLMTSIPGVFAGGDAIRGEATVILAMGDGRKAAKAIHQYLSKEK

`NC(=O)c1ccc[n+]([C@@H]2O[C@H](COP(=O)([O-])OP(=O)(O)OC[C@H]3O[C@@H](n4cnc5c(N)ncnc54)[C@H](OP(=O)(O)O)[C@@H]3O)[C@@H](O)[C@H]2O)c1` [NADP+] had a Kd of 2600 ± 600 nM.
Turning to `NC(=O)C1=CN([C@@H]2O[C@H](COP(=O)(O)OP(=O)(O)OC[C@H]3O[C@@H](n4cnc5c(N)ncnc54)[C@H](OP(=O)(O)O)[C@@H]3O)[C@@H](O)[C@H]2O)C=CC1` [NADPH], binding was put at a Kd of 2600 ± 600 nM.
